Measured values taken from publication PMC4579270, “Identification and Characterization of an Irreversible Inhibitor of CDK2” (Chemistry & Biology, 2015).

Legend:
GCK (MAP4K3) = assay: Dundee kinase screen re-test (standard format and 4 hour pre-incubation); assay type: biochemical
Experimental: Prior to determining its cellular activity, we carried out a screen to assess its selectivity against a panel of 131 protein kinases under conditions that would not distinguish between a reversible or irreversible mode of action. […] These 13 kinases and 29 additional kinases, selected for their known sensitivity to other inhibitors within the purine series, were then tested in a modified screening format in which the assay was repeated following a 4-hr pre-incubation (Table S3B). […] However, conformational flexibility around the active site may promote such an interaction with a residue from another part of the structure ([Martin et al., 2012]).
Table S3, Related to Figure 4. NCL-0006300 protein kinase selectivity. […]
(B) Selected kinases were re-tested in the Dundee kinase screen against NU6300 at a single concentration of 0.5 µM both in the standard assay format and following a 4 hour pre-incubation in the presence of NU6300. Kinases which have very low activity after the 4 hour incubation so that results might not be wholly reliable are boxed in salmon. Kinases where the activity after a 4 hour pre-incubation is < 50% that in the standard assay format are highlighted in red.

CDK2-Cyclin A = CDK2-Cyclin A (Homo sapiens, UniProt P24941); assay: ESI-MS of covalent adduct; parameters: made in house; host or cells: Escherichia coli (CDK2 co-expressed with S. cerevisiae CAK1); details: wild-type CDK2/cyclin A, overnight incubation, vs control
Experimental: To determine whether NU6300 binds covalently to CDK2, recombinant CDK2/cyclin A was incubated overnight with NU6300 and then analyzed by electrospray ionization mass spectrometry (ESI-MS) (Figure S1A). […]
Protein expression and purification
Site-directed mutagenesis of CDK2 was performed using the QuikChange II kit (Stratagene) following the manufacturer’s instructions and verified by DNA sequencing.
Wild-type CDK2 phosphorylated at Thr160, untagged human cyclin A2 (residues 174-432), S. cerevisiae GST–CAK, GST–3C-protease and GST–pRb (residues 792–928) were expressed and purified as previously described (Brown et al., 1999a; Brown et al., 1999b; Welburn and Endicott, 2005). GST-CDK2 mutants were expressed and purified as described (Welburn and Endicott, 2005) and subsequently phosphorylated in vitro by GST-CAK essentially as described in (Morris et al., 2002) except that multiple CAK aliquots were required to enhance the levels of CDK2 Thr160 phosphorylation. […]
CDK2/cyclin A (200 µM) was incubated overnight with 1 mM inhibitor or DMSO, and then dialysed for 8 h with regular replacement of dialysis buffer into HEPES-buffered saline (50 mM HEPES, pH 7.5, 250 mM NaCl, 0.02% MTG). […] Reactions were stopped by addition of SDS-PAGE loading buffer and analyzed by SDS-PAGE. […]

C=CS(=O)(=O)c1ccc(Nc2nc(OCC3CCCCC3)c3nc[nH]c3n2)cc1 [NU6300, 6-(cyclohexylmethoxy)-N-(4-(vinylsulfonyl)phenyl)-9H-purin-2-amine]
%Remaining activity at 0.5µM NU6300 - 4hr RT preincubation (GCK (MAP4K3); 0.5µM, 4hr RT preincubation): 29% | %Remaining activity at 0.5µM NU6300 - Usual assay format (GCK (MAP4K3); 0.5µM, usual format): 89% | additional loss of activity after pre-incubation (GCK (MAP4K3); 4-hr pre-incubation vs usual format, 0.5 µM): > 50% | increase in the mass of CDK2 (ESI-MS) (CDK2-Cyclin A): 414 Da
